{"source": "patent US10485776B2", "about": "“Medicament for therapeutic treatment of neuropathic disease” (KEMPHYS LTD., priority 2013, dated 2019)", "key": {"[1]": {"system": "normal leg (right) footpad of rat", "assay": "Rat pain test, Seltzer model, von Frey up-and-down method, normal leg (right)", "assay_type": "in vivo"}, "[2]": {"system": "model leg (left) footpad of sciatic nerve-ligated rat", "assay": "Rat pain test, Seltzer partial sciatic nerve ligation model, von Frey up-and-down method, model leg (left)", "assay_type": "in vivo"}, "[3]": {"system": "neuropathic pain mouse (L5 and L6 nerve ligation)", "assay": "Suppression of allodynia pain in mouse nerve ligation model, von Frey filament", "assay_type": "in vivo", "settings": "for pain threshold of nerve-ligated group vs medium solvent-applied group: hind leg immersed", "procedure": "FIG. 1 is a graph showing results of measurement of analgesic effect obtained by applying an aqueous solution of pregabalin (2.5 mg/ml) to a neuropathic pain mouse. The asterisks (*) indicate the presence of a significant difference with respect to the distilled water-applied group.\nFIG. 2 is a graph showing results of measurement of analgesic effect obtained by applying an aqueous solution of pregabalin (7.5 mg/ml) to a neuropathic pain mouse. The asterisks (*) indicate the presence of a significant difference with respect to the distilled water-applied group.\nThe nerves L5 and L6 of mice (n=6) were ligated with silk threads to prepare pain model. A sham group was prepared as a control (n=6). After 4 weeks, hind legs of the mice were immersed in a 2.5 mg/ml or 7.5 mg/ml aqueous solution of pregabalin (solution prepared by dissolving 75 mg of pregabalin in 10 ml or 30 ml of distilled water) 5 minutes before the measurement until the hair of whole right hind leg was wetted with the solution, and air-dried over 30 minutes after the application. In this state, pain threshold was measured by using a von Frey standard filament, and then pain threshold was measured in the same manner 60 minutes, 90 minutes, and 180 minutes thereafter."}, "[4]": {"assay": "Serum pregabalin concentration after application to the back of an adult, LC/MS (Example 12)", "assay_type": "in vivo, human", "settings": "150 mg in aqueous solution applied to the back", "procedure": "An aqueous solution containing pregabalin (150 mg) was applied to the back of an adult. After the application, blood was collected, and the serum was deproteinized, and then reacted with dinitrobenzenesulfonyl chloride to derivatize pregabalin. Pregabalin was quantified by LC/MS. The pregabalin concentration reached 9 ng/ml 30 minutes after the administration, and this concentration was maintained thereafter over 3 hours or longer."}, "[5]": {"settings": "normal site, 1 mg/site on footpad, individual animals No. 71-78"}, "[6]": {"settings": "normal site, 1 mg/site, average of 8 animals"}, "[7]": {"settings": "model site, 1 mg/site on footpad, individual animals No. 71-78"}, "[8]": {"settings": "model site, 1 mg/site, average of 8 animals"}}, "note": "Values joined by “and” are separate entries in the source; they are usually repeats but may differ in a detail not shown here. Equal entries are not always repeated.", "data": [{"smiles": "CC(C)C[C@H](CN)CC(=O)O", "note": "[Pregabalin]", "values": [{"measurement": "change of pain threshold value, normal leg", "setting": "[1]; 10.0 mg/mL in water with 0.1% Tween 80, 0.10 mL on footpad", "result": "Increase of the threshold value was also observed"}, {"measurement": "pain threshold value, 1 Hour after administration", "setting": "[1]; [5]", "result": "10.0 g and 8.0 g and 15.0 g (2×) and 26.0 g (4×)"}, {"measurement": "pain threshold value, 3 Hour after administration", "setting": "[1]; [5]", "result": "10.0 g (3×) and 26.0 g (2×) and 15.0 g (3×)"}, {"measurement": "pain threshold value, 6 Hour after administration", "setting": "[1]; [5]", "result": "10.0 g (5×) and 8.0 g and 15.0 g (2×)"}, {"measurement": "pain threshold value, 1 Hour after administration, Average", "setting": "[1]; [6]", "result": 19.0, "unit": "g"}, {"measurement": "pain threshold value, 3 Hour after administration, Average", "setting": "[1]; [6]", "result": 15.9, "unit": "g"}, {"measurement": "pain threshold value, 6 Hour after administration, Average", "setting": "[1]; [6]", "result": 11.0, "unit": "g"}, {"measurement": "pain threshold value, before administration, Average", "setting": "[1]; normal site, average of 8 animals, baseline before 1 mg/site", "result": 10.8, "unit": "g"}, {"measurement": "pain threshold value, before administration", "setting": "[1]; normal site, individual animals No. 71-78, baseline before 1 mg/site", "result": "8.0 g (2×) and 10.0 g (4×) and 15.0 g (2×)"}, {"measurement": "change of pain threshold values, pain model legs", "setting": "[2]; 10.0 mg/mL in water with 0.1% Tween 80, 0.10 mL on footpad, after 1 hour", "result": "Sufficient increase"}, {"measurement": "pain threshold value, 1 Hour after administration", "setting": "[2]; [7]", "result": "8.0 g and 2.0 g and 6.0 g (5×) and 4.0 g"}, {"measurement": "pain threshold value, 3 Hour after administration", "setting": "[2]; [7]", "result": "6.0 g (2×) and 2.0 g (2×) and 4.0 g (4×)"}, {"measurement": "pain threshold value, 6 Hour after administration", "setting": "[2]; [7]", "result": "4.0 g and 1.0 g (3×) and 2.0 g (4×)"}, {"measurement": "pain threshold value, 1 Hour after administration, Average", "setting": "[2]; [8]", "result": 5.5, "unit": "g"}, {"measurement": "pain threshold value, 3 Hour after administration, Average", "setting": "[2]; [8]", "result": 4.0, "unit": "g"}, {"measurement": "pain threshold value, 6 Hour after administration, Average", "setting": "[2]; [8]", "result": 1.9, "unit": "g"}, {"measurement": "pain threshold value, before administration, Average", "setting": "[2]; model site, average of 8 animals, baseline before 1 mg/site", "result": 1.6, "unit": "g"}, {"measurement": "pain threshold value, before administration", "setting": "[2]; model site, individual animals No. 71-78, baseline before 1 mg/site", "result": "2.0 g (2×) and 1.4 g (6×)"}, {"measurement": "pain threshold of nerve-ligated group vs medium solvent-applied group", "setting": "[3]; 2.5 mg/ml aqueous solution (low dose group), FIG. 1", "result": "statistically significant improvement"}, {"measurement": "pain threshold of nerve-ligated group vs medium solvent-applied group", "setting": "[3]; 7.5 mg/ml aqueous solution (high dose group), FIG. 2", "result": "statistically significant improvement"}, {"measurement": "persistence of pain threshold improvement", "setting": "[3]; both 2.5 and 7.5 mg/ml groups", "result": "maintained even after 3 hours"}, {"measurement": "time the serum concentration was maintained", "setting": "[4]; 9 ng/ml level", "result": "≥ 3", "unit": "h"}, {"measurement": "concentration at 30 min", "setting": "[4]; male, human, serum, topical, 30 minutes after the administration", "result": 9, "unit": "ng/mL"}]}]}
